Patent US20220411880A1, “METHODS AND COMPOSITIONS FOR DIAGNOSING AND TREATING CHRONIC MYELOMONOCYTIC LEUKEMIA (CMML)” (INSERM (INSTITUT NATIONAL DE LA SANTÉET DE LA RECHERCHE …, priority 2019, published 2022)

How the values were obtained:
[1] = tested on: ABCA1 mutant-transduced Tet2 deficient BM cells; assay: cell viability of treated ex vivo BM cultures; type: cell-based, mouse; conditions: same treated BM cultures; data not shown
Protocol: Briefly, femurs were flushed with ice-cold PBS and centrifugated for 5 min at 1,000 rpm to extract BM cells. After red blood cell lysis, over 90% of BM cells were CD45-positive cells of hematopoietic origin (Westerterp et al., 2012). Primary BM cells were resuspended in IMDM (Gibco) containing 10% FCS (STEMCELL Technologies) and cultured for 1 h in tissue culture flasks to remove adherent cells, including macrophages. The transduction rate of control, ABCA1-WT and ABCA 1-mutant lentiviral particles was determined after BM transplantation as described above. Suspended cells were then normalized to the same concentration and cultured for 72 h in the presence of 6 ng/mL IL-3 and 2 ng/mL GM-CSF (R&D Systems). In some experiments, the cyclodextrin (Sigma) was used at the final concentration of 5 mM, tempol (EMD Millipore) at 4 mM and anti-IL3Rbeta AF549 antibody (R&D Systems) at 50 μg/mL.

[2] = tested on: ABCA1 mutant-transduced Tet2 deficient BM cells; assay: [3H]-thymidine proliferation assay in ex vivo BM liquid culture; type: cell-based, mouse; conditions: FIG. 5E
From the text: FIG. 5. Cholesterol accumulation couples ABCA1 invalidation and Tet2 deficiency to IL-3 receptor β signaling hypersensitivity. (A-D) Quantification of BODIPY staining by flow cytometry expressed as mean fluorescence intensity (MFI) as a surrogate of cellular cholesterol neutral lipid per cell in BM hematopoietic stem (A and C) and progenitor (B and D) cells (i.e, LSKs, MEPs, CMPs and GMPs) of recipient mice transplanted with Mx1-Cre^+, Mx1-Cre^+ Abca1^fl/fl, MX1-Cre^+Tet2^fl/fl and Mx1-Cre^+Tet2^fl/flAbca1^fl/fl BM (A and B) or control and Mx1-Cre^+Tet2^fl/fl BM expressing empty, ABCA1-WT or ABCA1 mutants (C and D). (E) Expression of mRNA was normalized to m36B4. mRNA levels were expressed as percentage over WT whole BM cells. Proliferation rates were determined after 2 h [^3H]-thymidine pulse labeling in BM cells from empty, ABCA1-WT and ABCA1 mutants-transduced animals on a Tet2 deficient background that were grown for 72 h in liquid culture in the presence or absence of 6 ng/mL IL-3 and 2 ng/mL GM-CSF and the indicated chemical compounds.
FIG. 6. […] (A) Proliferation rates were determined after 2 h [^3H]-thymidine pulse labeling in BM cells from empty, ABCA1-WT and ABCA1 mutants-transduced animals on a Tet2 deficient background that were grown for 72 h in liquid culture in the presence or absence of 50 μg/mL PEG-HDL. […]

cyclodextrin
cell viability [1]: without affecting cell viability
proliferation of ABCA1 mutant-transduced Tet2 deficient BM cells ([2]; 72 h culture in presence or absence of IL-3 and GM-CSF, cyclodextrin 5 mM, antibody 50 μg/mL, effect similar to ABCA1-WT overexpression): prevented the proliferation

CC1(C)CC(O)CC(C)(C)N1[O] [tempol]
basal proliferation and IL-3/GM-CSF hypersensitivity of ABCA1 mutants-transduced Tet2 deficient BM cells ([2]; tempol 4 mM, 72 h culture with or without 6 ng/mL IL-3 and 2 ng/mL GM-CSF): prevented the basal proliferation and IL-3/GM-CSF hypersensitivity
